Measured values published in patent US10774049B2, “PU.1 inhibitors” (Albert Einstein College of Medicine, priority 2016, dated 2020).
pIC50: −log10 of the molar value.

Columns and labels:
[1] = test system: PU.1 URE−/− AML cell line; test: Cell viability/growth of PU.1 URE−/− AML cells; type: cell-based, murine; settings: Mus musculus; read-out: IC50 URE−/−
Experimental: (§1) FIG. 2A-2F. PU.1 inhibition decreases cell growth and increases apoptosis of PU.1^1″ leukemic cells. (A) Chemical structures of heterocyclic diamidines DB1976, DB2115 and DB2313 used in this study. (B) Relative cell viability of URE−/− cells and BAF3 cells after treatment with increasing concentrations of vehicle or small molecules. Cell viability was assessed after 48 h. Data represent means of technical triplicate from one representative experiment; fold change compared to Vehicle is shown. (C) Cell proliferation assay of URE−/− after treatment with DB1976 (n=5), DB2115 (n=3), DB2313 (n=3), of MOLM13 cells (n=3), and THP1 cells (n=3). Cell counting was performed every 24 h during 4 days. Data represent means±SD of technical triplicate from one representative experiment. Forward strand: SEQ ID NO:3, and Reverse strand: SEQ ID NO:4; derived from the λB motif from the murine Ig lambda 2-4 enhancer, a known native PU.1-dependent gene and specific binding site for PU.1. (D) Clonogenic capacities of URE−/− cells after treatment with DB1976 (n=5), DB2115 (n=3) and DB2313 (n=4) in the first plating, and after serial replatings (n=3). Data represent means±SD of technical triplicate from one representative experiment. (E) Apoptotic cells (Annexin-V+Dapi−) fraction in URE−/− cells after 48 h of treatment with DB1976 (n=6), DB2115 (n=6) and DB2313 (n=3). Data represent the means±SD of independent experiments; fold change compared to Vehicle is shown. *P<0.05, **P<0.01, ***P<0.001, ****P<0.0001 (F) Dose dependent inhibitor of PU.1-dependent transactivation.
(§2) To determine if our PU.1 inhibitors have an effect on PU.1^low-induced AML cells, we treated the PU.1 URE^−/− AML cell line with compounds at different concentrations. Treatment with the drugs led to a profound decrease in growth of PU.1 URE^−/− AML cells after 48 h whereas it had only minimal or no effects on control cells with normal PU.1 levels (BaF3), even at very high doses (FIG. 3A). […] Similar to our observations with PU.1-directed shRNAs, treatment with pharmacological PU.1 inhibitors led to a significant 1.6-, 2- and 3.5-fold increase of apoptotic cells with DB1976, DB2115 and DB2313, respectively, in murine PU.1 URE^−/− AML cells (FIG. 3C), and similar effects in human MOLM13 cells.

BaF3 cells = test: Cell viability of BaF3 control cells; type: cell-based, murine; settings: Mus musculus, NR = Not Reached
Experimental: as §1, §2

pIC50 (BaF3 cells) | SMILES | pIC50 [1]
4.17 | N=C(N)c1ccc2nc(-c3ccc(OCCOCCOc4ccc(-c5nc6ccc(C(=N)N)cc6[nH]5)cc4)cc3)[nH]c2c1 [DB2146] | 5.30
3.38 | CN(CCOc1ccc(-c2nc3ccc(C(=N)N)cc3[nH]2)cc1)CCOc1ccc(-c2nc3ccc(C(=N)N)cc3[nH]2)cc1 [DB2150] | 4.70
– | Cn1c(-c2ccc(OCCCOc3ccc(-c4nc5cc(C(=N)N)ccc5n4C)cc3)cc2)nc2cc(C(=N)N)ccc21 [DB2237] | 5.36
– | CC(C)NC(=N)c1ccc2nc(-c3ccc(OCCOCCOc4ccc(-c5nc6ccc(C(=N)NC(C)C)cc6[nH]5)cc4)cc3)[nH]c2c1 [DB2295] | 4.98
– | CC(C)NC(=N)c1ccc2nc(-c3ccc(OCc4cccc(COc5ccc(-c6nc7ccc(C(=N)NC(C)C)cc7[nH]6)cc5)n4)cc3)[nH]c2c1 [DB2302] | 5.11
4.32 | Cn1c(-c2ccc(OCc3cccc(COc4ccc(-c5nc6cc(C(=N)N)ccc6n5C)cc4)n3)cc2)nc2cc(C(=N)N)ccc21 [DB2326] | 5.72
– | Cn1c(-c2ccc(-c3ccc(C(=N)N)cc3)s2)nc2cc(-c3ccc(C(=N)N)cc3)ccc21 [DB2457] | 4.78
– | N=C(N)c1ccc2nc(-c3ccc(Oc4ccc(Oc5ccc(-c6nc7ccc(C(=N)N)cc7[nH]6)cc5)cc4)cc3)[nH]c2c1 [DB2483] | 5.28
4.35 | N=C(N)c1ccc2nc(-c3ccc(OCC(F)(F)C(F)(F)Oc4ccc(-c5nc6ccc(C(=N)N)cc6[nH]5)cc4)cc3)[nH]c2c1 [DB2514] | 5.25

SMILES | pIC50 (BaF3 cells) | pIC50 [1]
N=C(N)c1ccc2nc(-c3ccc(OCC(F)(F)C(F)(F)C(F)(F)COc4ccc(-c5nc6ccc(C(=N)N)cc6[nH]5)cc4)cc3)[nH]c2c1 [DB2355] | 4.31 | 5.77
